Results published in article PMC10899660, “Global fungal-host interactome mapping identifies host targets of candidalysin” (Nature Communications, 2024).
Ends that are not written are not given here.

Legend:
Cyclin H (CCNH) = molecular target: T1, Cyclin H (CCNH) (Homo sapiens, UniProt P51946); assay: Surface plasmon resonance (SPR) on BIAcore; settings: binding to CCNH; for kon: association rate, read-out: Ka
T1 construct: purchased Sino Biological Inc. Lot; ME12NO2769 (a lot number; catalogue number not given); host or cells: E. coli
T1 sequence (P51946 1-323): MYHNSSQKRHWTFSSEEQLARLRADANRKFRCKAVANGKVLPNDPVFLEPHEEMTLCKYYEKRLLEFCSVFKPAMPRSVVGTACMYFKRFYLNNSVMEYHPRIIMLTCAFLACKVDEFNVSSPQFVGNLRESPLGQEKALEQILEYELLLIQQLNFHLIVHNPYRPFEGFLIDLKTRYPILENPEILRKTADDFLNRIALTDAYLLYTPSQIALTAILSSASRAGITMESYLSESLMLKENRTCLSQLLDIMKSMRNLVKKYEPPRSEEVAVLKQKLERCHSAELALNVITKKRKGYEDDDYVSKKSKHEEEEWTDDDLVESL
Experimental: Recombinant Cyclin H (CCNH) protein with a C-HIS tag (Lot. ME12NO2769, 38.46 kDa) was obtained from Sino Biological Inc. and stored at −80 °C. In short, the cyclin H (Homo sapiens) gene was amplified by PCR and cloned into an expression vector which was transformed into E. coli followed by the selection and establishment of high expression transformants. The protein was purified using immobilized metal ion affinity chromatography and dissolved in PBS (pH 7.4). SPR measurement was performed with Biacore T200 instrument (GE), at 25 °C, with a flow rate of 30 μL/min. CM5 sensor chips, HBS-EP running buffer and the Amine Coupling Kit, including 1-ethyl-3(3-dimethylaminopropyl) carbodiimide hydrochloride (EDC), N-hydroxysuccinimide (NHS), 1.0 M ethanolamine-HCl (pH 8.5) were purchased from GE. The binding properties of candidalysin to CCNH were evaluated upon immobilization of CCNH onto CM5 chip surface in flow cell 2 (FC-2) using Biacore Amine Coupling Kit according to the manufacturer’s instructions. CCNH was diluted to 20 μg/ml in acetate buffer (pH 4.0) in advance and immobilized on the CM5 Chip following the EDC/NHS protocol. The reached immobilized target level was 1200 RU. The reference flow cell (FC-1) was blank-immobilized following the templated procedure. BIAcore measurements were performed starting from a 1:1 serial dilution of candidalysin following the templated multicycle analysis (association time 120 s, dissociation time 150 s, flow 30 μL/min). The SPR measurement for Ece1-II, Ece1-IV, Ece1-V and human cathelicidin (Solarbio, CLP0454) to CCNH were performed with Biacore 8 K instrument (GE) by PBST running buffer, and the other conditions were the same.

FaDu cells = assay: Western blot of CCNH and γ-H2AX, FaDu cells; assay type: cell-based; settings: comparison toxins / low-dose Triton X-100
Experimental: (§1) Cells were lysed with cell lysis buffer (Beyotime, #P0013) on ice for 30 min. The supernatant of cell lysate was then collected in a table-top refrigerated centrifuge at 4 °C and 14,000 × g for 10 min. Protein concentration was determined by Pierce™ BCA Protein Assay Kit (Thermo Scientific™, #23227). Antibodies against the following proteins were used for Western blotting analysis: CCNH antibody (CST,Rabbit Source, Cat#2927, 1:1000 dilution), gama-H2AX antibody (CST, Rabbit Source, Cat#97185, 1:1000 dilution), GAPDH (D16H11) XP® Rabbit mAb (CST, Rabbit Source, Cat#5174 S, 1:1000 dilution), Anti-CDK2 (phospho T160) + CDK1 (phospho T161) antibody (Abcam, Rabbit Source, Cat#EPR17621, 1:1000 dilution), Anti-rabbit IgG, HRP-linked Antibody (CST, Goat Source, Cat#7074, 1:5000 dilution), […] Tag (D6W5B) Rabbit mAb (CST, Rabbit Source, Cat#14793, 1:1000 dilution), GFP (4B10) Mouse mAb (CST, Mouse Source, Cat #2955, 1:1000 dilution), Anti-mouse IgG,HRP-linked antibody (CST, Goat Source, Cat#7076, 1:5000 dilution). Membranes were treated with SuperSignal™ West Pico PLUS Chemiluminescent Substrate (Thermo Scientific™, #34577) prior to visualization in the Chemiluminescence Imaging Analysis System (BG-gdsAUTO720, Baygene). GAPDH was used as the loading control.

A549 cells = assay: Western blot of CCNH and γ-H2AX, A549 and CCNH-KD A549 cells; assay type: cell-based; settings: A549, 10 μM, 4 h
Experimental: as §1

FKRIVQRIKDFLRNLVPRTES [Amp]
kon (Cyclin H (CCNH)): 3040 M⁻¹ s⁻¹
Kd (Cyclin H (CCNH); column pK, row KD (M)): 6.26e-05 M

CC[C@H](C)[C@H](NC(=O)CNC(=O)[C@H](C)NC(=O)[C@@H](NC(=O)[C@@H](NC(=O)[C@H](CO)NC(=O)[C@H](CC(=O)O)NC(=O)[C@@H](NC(=O)[C@H](CC(=O)O)NC(=O)[C@@H](N)CCC(=O)O)[C@@H](C)CC)C(C)C)C(C)C)C(=O)N[C@H](C(=O)N[C@@H](C)C(=O)N[C@@H](CC(=O)O)C(=O)N[C@@H](CCSC)C(=O)N1CCC[C@H]1C(=O)N[C@@H](Cc1ccccc1)C(=O)N[C@H](C(=O)N[C@H](C(=O)N[C@@H](CCCNC(=N)N)C(=O)N[C@@H](C)C(=O)N[C@H](C(=O)N[C@@H](CC(=O)O)C(=O)N[C@H](C(=O)N[C@@H](C)C(=O)N[C@@H](CCSC)C(=O)N[C@H](C(=O)N[C@@H](CO)C(=O)N[C@H](C(=O)N[C@@H](C)C(=O)N[C@@H](CO)C(=O)N[C@H](C(=O)N[C@@H](CCCCN)C(=O)N[C@@H](CCCNC(=N)N)C(=O)O)[C@@H](C)O)C(C)C)[C@@H](C)O)[C@@H](C)O)C(C)C)C(C)C)C(C)C)[C@@H](C)CC [Ece1-IV]
kon (Cyclin H (CCNH)): 49.8 M⁻¹ s⁻¹

Triton X-100
DNA damage (CCNH and γ-H2AX expression) (FaDu cells): failed to induce severe DNA damage

CC[C@H](C)[C@H](NC(=O)[C@H](CO)NC(=O)[C@H](CCC(N)=O)NC(=O)[C@H](CCC(N)=O)NC(=O)[C@@H](NC(=O)CNC(=O)[C@@H](NC(=O)[C@H](C)NC(=O)[C@@H](NC(=O)[C@H](CCCNC(=N)N)NC(=O)[C@H](C)NC(=O)[C@@H](NC(=O)[C@@H](NC(=O)[C@H](CCC(=O)O)NC(=O)[C@@H]1CCCN1C(=O)[C@H](CC(C)C)NC(=O)[C@H](CCCNC(=N)N)NC(=O)[C@@H](NC(=O)[C@@H](NC(=O)[C@H](C)NC(=O)[C@H](CC(N)=O)NC(=O)[C@H](C)NC(=O)[C@@H](NC(=O)[C@H](CC(=O)O)NC(=O)[C@H](CC(=O)O)NC(=O)[C@H](CC(N)=O)NC(=O)[C@H](C)NC(=O)CNC(=O)[C@@H](N)CC(=O)O)C(C)C)C(C)C)C(C)C)[C@@H](C)CC)C(C)C)C(C)C)[C@@H](C)O)C(C)C)C(=O)N[C@@H](CCC(=O)O)C(=O)N[C@@H](CC(N)=O)C(=O)N[C@@H](C)C(=O)N[C@@H](CCCCN)C(=O)N[C@@H](CCCNC(=N)N)C(=O)O [Ece1-V]
kon (Cyclin H (CCNH)): 228 M⁻¹ s⁻¹

CN(C)C/C=C/C(=O)Nc1ccc(C(=O)Nc2cccc(Nc3ncc(Cl)c(-c4c[nH]c5ccccc45)n3)c2)cc1 [THZ1]
CCNH and γ-H2AX expression (A549 cells): prominently elevated CCNH and γ-H2AX expression

mellitin: pore forming toxin
DNA damage (CCNH and γ-H2AX expression) (FaDu cells): failed to induce severe DNA damage
